# Reference: US8852895B2, “Macrocyclic derivative and assemblies formed therefrom” (University College Dublin, National University of Ireland, priority 2008, dated 2014)
# Several values for one entry are separate records, joined by “and”; a condition that tells them apart may be missing. Equal entries are not always repeated. Where two headings read alike, the source gives them in different places.
# Columns and labels:
# [1] = test system: Cos-7 cells; settings: cyclodextrin:DNA mass ratios of 10, 15 and 20, 1 μg DNA, FIG. 3
# [2] = DLS, 0.1 mg/mL cyclodextrin in water
# Protocol: A 50 μL aliquot of the stock solution (0.5 mg of cyclodextrin) was transferred to a glass vial. The solvent was evaporated slowly in order to form a thin film of cyclodextrin on the surface of the glass. Millipore water (5 mL) was then used to hydrate the film giving a cyclodextrin solution with a concentration of 0.1 mg/mL. The vial was capped and placed in an oven for 90 minutes at 60° C. The cyclodextrin solutions were then filtered through a 0.45 μm Gelman Acrodisk syringe filter into a fluorimeter cuvette to remove any particles and macro aggregates. DLS investigations of these solutions were carried out using a Malvern Autosizer 4700 equipped with an Innova 70 laser (488 nm) and a photomultiplier at an angle of 90°.
smiles,measurement,setting,value
CCCCCCCCOC(=O)CCSCCCO[C@H]1[C@H]2O[C@H]3[C@H](O)[C@@H](OCCCSCCC(=O)OCCCCCCCC)[C@@H](O[C@H]4[C@H](O)[C@@H](OCCCSCCC(=O)OCCCCCCCC)[C@@H](O[C@H]5[C@H](O)[C@@H](OCCCSCCC(=O)OCCCCCCCC)[C@@H](O[C@H]6[C@H](O)[C@@H](OCCCSCCC(=O)OCCCCCCCC)[C@@H](O[C@H]7[C@H](O)[C@@H](OCCCSCCC(=O)OCCCCCCCC)[C@@H](O[C@H]8[C@H](O)[C@@H](OCCCSCCC(=O)OCCCCCCCC)[C@@H](O[C@@H]([C@@H]1O)[C@@H](CSCCN)O2)O[C@@H]8CSCCN)O[C@@H]7CSCCN)O[C@@H]6CSCCN)O[C@@H]5CSCCN)O[C@@H]4CSCCN)O[C@@H]3CSCCN.O=C(O)C(F)(F)F [heptakis[6-(2′-aminoethylthio)-2-O-octyloxycarbonylethylsulfanylpropyl]-β-cyclodextrin trifluoroacetic acid salt],transfection (luciferase expression) compared with naked DNA and DOTAP,[1],greater than DNA on its own and greater than DOTAP
same,Zaverage (nm),"[2]; Day 1, filtered 0.45 μm, angle 90°, trifluoroacetic acid salt",76 nm and 85 nm
same,Polydispersity,[2]; Day 7,0.251
same,Zaverage (nm),[2]; Day 7,82 nm
